Results taken from ChEMBL document CHEMBL3046909, “C(18) acetylenic fatty acids of Ximenia americana with potential pesticidal activity” (J Agric Food Chem, 2000).
Values after ≈ are worked out from the molar mass of the structure shown.

Key:
[1] = test system: Artemia; experiment: (§1) Toxicity in Artemia (brine shrimps) larvae; type: organism-based; settings: in vivo
[2] = as §1; type: organism-based; settings: in vivo
[3] = test system: Clavigralla tomentosicollis; experiment: Inhibition of hatching of Clavigralla tomentosicollis eggs in pods of cowpea at 4x10'4 ug/mL spray measured after 6 days; type: functional

With `CC[C@H](CC[C@@H](C)[C@H]1CC[C@H]2[C@@H]3CC=C4C[C@@H](O)CC[C@]4(C)[C@H]3CC[C@]12C)C(C)C` [BETA-SITOSTEROL] the Activity [1] was “Non-toxic”.

In the case of `C/C=C/C=C/C#C/C=C\CCCCCCCCC(=O)O`, the LC50 [2] is reported as 20 µg/mL (≈ 72.9 µM) and the “inhibition (INH)” value [3] is reported as 92%.
